The source of these data is PMC9751974 (Frontiers in Microbiology, 2022).

In brackets after ≈: the same amount, converted by molar mass. Read-outs that look alike come from different tables or passages of the source. Where a SMILES comes first, the peptide text is derived from it. [ ]: non-standard residue; d: D form.

Usually MIC stands for the lowest concentration found to suppress growth.

The target in one data set is pepsin (Sus scrofa, UniProt P00791). As to the kind of experiment: Protease stability (MIC after incubation with pepsin). Type of data set: in vitro ADME. The conditions noted are these: pepsin 3,000 U/mg, pH 2.0, 4 h, 37°C; peptide:protease 10:1 w/w (320 and 32 μg/mL); read-out MIC; triplicate. The method, then:
All assays were carried out in triplicate.

For data set [1], the system named is healthy mouse red blood cells. Briefly: Hemolysis. Particulars: mouse red blood cells 8% v/v, PBS pH 7.4, 37°C, 1 h, OD540, three replicates. The method, then: Hemolytic activity was estimated by determining hemoglobin released from healthy mouse red blood cells. Blood cells were washed three times in sterile PBS (10 mM, pH 7.4) and centrifuged at 1500 rpm for 5 min at 4°C. […] Afterward, the mixtures were incubated at 37°C for 1 h and centrifuged at 1500 rpm for 5 min. Ultimately, the absorbance of supernatants was measured at 540 nm. PBS and 0.1% Triton X-100 were used as the negative and the positive control, respectively. Hemolysis (%) = [(OD540 nm of the treated sample-OD540 nm of the negative control)/ (OD540 nm of positive control-OD540 nm of negative control)] × 100%.

A further data set has as its system pepsin and trypsin. As to the kind of experiment: Protease stability, pepsin and trypsin stated together. On the procedure:
The untreated peptides and buffer solution were used as control. […] All assays were carried out in triplicate.

The subject of data set [2] is RAW264.7 cells and Vero cells. As to the kind of experiment: Cytotoxicity, CCK-8 assay, RAW264.7 and Vero stated together. Particulars: 128 μg/mL; range over Figures 1D,E (RAW264.7 and Vero). The method, then:
Cells (2.5 × 10^4 cells/well) were added into 96-well plates and incubated at 37°C in a humidified 5% CO2 environment for 24 h. […] Sterile aqua distillate was used as control. Eventually, 10 μL WST-8 solutions were added into each well. After 4 h of incubation at 37°C, a microplate reader was applied to measure the absorbance of each sample at 460 nm. The following formula was used to calculate cell viability: Cell viability (%) = OD 460 nm of treated sample/OD 460 nm of control × 100%.
On the technique in general: Formazan colour is commonly taken as a measure of viable cells.

Data set [3] concerns E. coli ATCC25922. The method, then:
The MIC values of peptides against E. coli ATCC25922 were determined by the microtiter broth dilution method. The bacteria were grown to the mid-logarithmic phase and diluted into the Luria-Bertani (LB) broth at 1 × 10^5 CFU/mL. […] Polymyxin and the sterile aqua distillate were tested as control. All assays were performed in triplicate.

In data set [4] the test system is E. coli ATCC25922. Briefly: Development of resistance by serial passaging (MIC assay). Particulars: 11 serial passages of E. coli ATCC25922, inoculum from 1/4 MIC well, 11 days. The data set is classed as cell-based, Escherichia coli. The method, then: The development of resistance against E. coli ATCC25922 of these peptides was performed by MIC assay. Mid-log phase of bacteria (1 × 10^5 CFU/mL) (90 μL/well) was added to 10 μL peptides solution (128, 64, 32, 16, 8, 4, 2, 1, 0.5, 0.25 μg/mL). Polymyxin were used as control. After incubation at 37°C for 16–18 h, bacteria form 1/4 MIC well were used to inoculate in fresh culture. The MIC values were continually determined as described above. The serial passaging was repeated for 11 days.

In data set [5] the test system is murine RAW264.7 macrophage cells. On the procedure:
The performance of the Cell Counting Kit-8 (CCK-8) assay was applied to investigate the effect of peptides on the viability of murine RAW264.7 macrophage cells and Vero cells in accordance with the previous method ([Zhou et al., 2021]). Cells (2.5 × 10^4 cells/well) were added into 96-well plates and incubated at 37°C in a humidified 5% CO2 environment for 24 h. Then various concentrations (0.15–20 μg/mL) of peptides were mixed with cells. Sterile aqua distillate was used as control. Eventually, 10 μL WST-8 solutions were added into each well. After 4 h of incubation at 37°C, a microplate reader was applied to measure the absorbance of each sample at 460 nm. The following formula was used to calculate cell viability: Cell viability (%) = OD 460 nm of treated sample/OD 460 nm of control × 100%.

In data set [6] the test system is healthy mouse red blood cells. Particulars: cited from earlier work; for hemolysis rate: reported in previous research, ref Zhou et al., 2021. An excerpt:
Escherichia coli (E. coli) infection and LPS-induced inflammation are still of severe threat to human health. With the increasing problem of antibiotic resistance, there is a desperate need to develop new approaches to solve the problem.

Data set [7] concerns murine RAW264.7 macrophage cells. The conditions noted are these: 128 μg/mL; cell line not given; ref Zhou et al., 2021; cited from earlier work. The method, then: The toxicity of peptides to mouse eukaryotic cells, macrophagocyte RAW 264.7 and Vero cells was determined.
For data set [8] the following is noted: ref Zhou et al., 2021; cited from earlier work. An excerpt:
As essential components of innate immunity, antimicrobial peptides (AMPs) contribute to the first line of defense against infections. […] However, its ant ...

pepsin, sequence (P00791 60-385): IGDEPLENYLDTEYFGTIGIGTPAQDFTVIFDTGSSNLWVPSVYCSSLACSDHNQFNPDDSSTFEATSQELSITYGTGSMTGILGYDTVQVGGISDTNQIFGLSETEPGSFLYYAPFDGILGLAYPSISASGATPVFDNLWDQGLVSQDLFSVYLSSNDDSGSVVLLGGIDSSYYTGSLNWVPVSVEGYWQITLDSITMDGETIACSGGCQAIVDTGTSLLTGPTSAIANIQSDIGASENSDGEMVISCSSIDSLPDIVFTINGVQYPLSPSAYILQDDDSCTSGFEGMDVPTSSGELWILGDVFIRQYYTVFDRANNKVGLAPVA

On to `CC[C@@H](C)[C@@H](NC(=O)[C@@H](CCCNC(=N)N)NC(=O)[C@H](NC(=O)[C@@H](C)NC(=O)[C@H](NC(=O)[C@H](NC(=O)[C@@H](CC(C)C)NC(=O)[C@@H](CCCNC(=N)N)NC(=O)[C@H](N)C(C)C)[C@H](C)CC)C(C)C)C(C)C)C(=O)N[C@H](Cc1c[nH]c2ccccc12)C(=O)N[C@H](CCCNC(=N)N)C(=O)N[C@H](CCCNC(=N)N)C(N)=O` [D1018] (H-[dV][dR][dL][dI][dV][dA][dV][dR][dI][dW][dR][dR]-NH2), for which the “MIC against E. coli ATCC25922 after exposure to pepsin” value on pepsin came to 4 µg/mL (≈ 2.6 µM). Further, the figures for the hemolysis rate in [1] (32 μg/mL), in data set [1] (64 μg/mL) and in data set [1] (128 μg/mL) were 0.542%, 1.724% and 2.316%, respectively. In addition, the “increase of resistance against tested proteases” value with pepsin and trypsin (abstract, D-peptides compared with L-parents) is given as 2–4 times. For the same molecule, the survival rate in data set [2] was 81.7–87.6%.

For the molecule Polymyxin [reference compound], the MIC in the data set on E. coli ATCC25922 [3] (E. coli ATCC25922, LB broth, 1 × 10^5 CFU/mL, 37°C, 16–24 h, triplicate) stood at 1.56 µg/mL. The “change of MIC after serial passages” value in the data set with E. coli ATCC25922 [4] is reported as “no change in MIC”.

Regarding `CC(C)C[C@@H](NC(=O)[C@@H](CCCNC(=N)N)NC(=O)[C@H](N)C(C)C)C(=O)N[C@H](CCCNC(=N)N)C(=O)N[C@H](Cc1c[nH]c2ccccc12)C(=O)N[C@H](Cc1c[nH]c2ccccc12)C(=O)N[C@H](CCCNC(=N)N)C(=O)N[C@H](CCCNC(=N)N)C(=O)N[C@H](CCCNC(=N)N)C(=O)N[C@H](Cc1c[nH]c2ccccc12)C(=O)N[C@H](CCCNC(=N)N)C(=O)N[C@H](CCCNC(=N)N)C(N)=O` [D1018M] (H-[dV][dR][dL][dR][dW][dW][dR][dR][dR][dW][dR][dR]-NH2), in the data set with E. coli ATCC25922 [3] (ATCC25922), the MIC was 4 µg/mL (≈ 2.13 µM). In addition, in the data set on pepsin and trypsin, the “decline of anti-E. coli ability after exposure to pepsin and trypsin” value (from here on “decline of anti-E. coli ability”) was found to be 4 times; the “increase of resistance against tested proteases” value was 2–4 times. Further, the “safe concentration of murine macrophage cells” value in data set [5] was 4 times of MIC.

Turning to `CC(C)C[C@H](NC(=O)[C@H](CCCNC(=N)N)NC(=O)[C@@H](N)C(C)C)C(=O)N[C@@H](CCCNC(=N)N)C(=O)N[C@@H](Cc1c[nH]c2ccccc12)C(=O)N[C@@H](Cc1c[nH]c2ccccc12)C(=O)N[C@@H](CCCNC(=N)N)C(=O)N[C@@H](CCCNC(=N)N)C(=O)N[C@@H](CCCNC(=N)N)C(=O)N[C@@H](Cc1c[nH]c2ccccc12)C(=O)N[C@@H](CCCNC(=N)N)C(=O)N[C@@H](CCCNC(=N)N)C(N)=O` [1018M] (H-VRLRWWRRRWRR-NH2), the hemolysis in data set [6] is 0%. Also, in the data set on E. coli ATCC25922 [3] (ATCC25922), the minimum inhibitory concentration (MIC) is 8 µg/mL (≈ 4.25 µM). In addition, the “decline of anti-E. coli ability” value in the data set on pepsin and trypsin is listed as 4 times.

In the case of `CC[C@H](C)[C@H](NC(=O)[C@H](CCCNC(=N)N)NC(=O)[C@@H](NC(=O)[C@H](C)NC(=O)[C@@H](NC(=O)[C@@H](NC(=O)[C@H](CC(C)C)NC(=O)[C@H](CCCNC(=N)N)NC(=O)[C@@H](N)C(C)C)[C@@H](C)CC)C(C)C)C(C)C)C(=O)N[C@@H](Cc1c[nH]c2ccccc12)C(=O)N[C@@H](CCCNC(=N)N)C(=O)N[C@@H](CCCNC(=N)N)C(N)=O` [IDR-1018] (H-VRLIVAVRIWRR-NH2), the survival rate in data set [7] is listed as 95.9%. Further, the hemolysis rate in data set [6] (32 μg/mL) is given as 0.386%; in data set [6] (64 μg/mL) it was 2.136%; in data set [6] (128 μg/mL), 2.651%. Moreover, the “decrease of activity on exposure to inappropriate temperature, pH, or protease environment” value in data set [8] is given as 2–16 times. The “decline of anti-E. coli ability” value in the data set with pepsin and trypsin (4 h, 37°C, pepsin pH 2.0 and trypsin pH 8.0, 10:1 w/w, read-out MIC vs untreated peptide) is reported as 2–4 times.
